Test results reported in US20140341939A1 (NATIONAL UNIVERSITY CORPORATION KOCHI UNIVERSITY, priority 2011, published 2014).
“Also recorded” adds a separate entry of the source. Where no end group is shown, it is not given here.

Assays:
[1] = Degradation of peptide in 10% fresh mouse serum (HPLC of remaining peptide); details: mouse, 10% fresh mouse serum
Description: (§1) Peptide was digested in TBS containing 10% fresh mouse serum or fresh human serum. After incubation at 37° C. for a given time, 1% trifluoro acid was added to remove various serum proteins by precipitation. After short centrifugation, the soluble fraction was analyzed by reversed-phase HPLC using a C18 analysis column. To normalize variation in the total amount of the peptide loaded for each HPLC, the peak of non-protein components contained in the serum, which is absorbed at the wavelength of 220 nm, was used as an internal control. The peak area of undigested peptides was quantitatively monitored by Chromatopac C-R8A (Shimadzu Corp., Kyoto, Japan), and the amount of the remaining peptide was calculated.
(§2) Therefore, the inventor examined the digestion resistance of peptide in vitro in a 10% fresh mouse serum. The amount of a remaining undigested peptide was quantified by HPLC.

[2] = tested on: serum peptidase; experiment: as above; details: 10% fresh mouse serum, up to 16 hr (FIG. 21)
Description: as §1, §2

[3] = tested on: EG7 tumor; experiment: Antitumor activity by in vivo immunization with OVA-derived peptides (EL4 / EG7 tumor); details: CBF1 mouse, peptide-loaded LPS blast i.p. 3 times; EL4 / EG7 tumor (FIG. 8)
Excerpt: CBF1 mouse was immunized with LPS blast of splenocyte pulsed with either λ repressor peptide ([…]; SEQ ID NO: 39) or OVAII peptide as a Th epitope peptide, and K^b-binding OVA-I peptide, which is a CTL inducing peptide. LPS blast derived from one spleen was pulsed with peptide, and intraperitoneally injected to immunize two mice. The next day of the third immunization, 9×10^6 EL4 cells and 1.2×10^7 EG7 cells were intradermally transplanted in a pair on the back skin of the mice. The tumor size was measured every other day. Immunization was performed once again 2 weeks from the tumor transplantation.
To verify the anti-tumor effect of inducing tumor-specific Th cells in vivo, the inventor compared the immunization protocol that induces 1. CTL alone, 2. CTL and a third party antigen-specific Th cell, and 3. CTL and tumor-specific Th cell. As the antigen presenting cell, LPS blast of spleen cell was used, and the APC loaded with each peptide alone or the mixture of each peptide was injected intraperitoneally 3 times (once per week). On the day of third immunization, 9×10^6 EL4 and 1.2×10^7 EG7 tumor were innoculated on the opposite sides of the back, and the tumor diameter was measured from day 4.

[4] = tested on: DO11.10 cells; experiment: Cell migration test through F2-IA^d cell layer (Transwell); assay type: cell-based, mouse
Description: F2-IA^d cells were cultured until confluence on an insert of Transwell plate (BD Labware, Billerica, Calif.). The cells were cultured in the presence of 500 U/ml rmIFN-γ for the last 3 days of culture. In addition, F2-IA^d cells were pulsed with various concentrations of OVAII peptide for the last 2 hr of culture. After the culture, F2-IA^d cells were washed and CD4^+ cells were isolated by negative selection (Dynal mouse CD4 negative isolation kit (Invitrogen)) from DO11.10 transgenic spleen cells to not less than 95% purity, which were added by 4×10^6 cells per well. The cells were incubated at 37° C., and the number of DO11.10 that migrated under the chamber in 6 hr was counted.

[5] = tested on: DO11.10 cells; experiment: Antigen presentation by F2-IA^d vascular endothelial cells (CD69 expression by DO11.10 cells); assay type: cell-based, mouse
Description: EL4 cells were first opsonized with RGD peptide. Next, 5 mg/ml OVA protein was loaded on the cytoplasm by osmotic pressure loading. After sufficient washing, 2×10^6 EL4 cells were added to a confluent culture medium of F2-IA^d cells on a 24-well plate (cultured for 2 days in advance in the presence of 500 U/ml rmIFN-γ). As a control, EL4 and EG7 mock-loaded with PBS were RGD-modified in the same manner and used. EL4 and other target cells were added to F2-IA^d, and the cell mixture was cultured for 24 hr. As for the control well wherein F2-IA^d cells were directly loaded with OVAII peptide, the cells were pulsed with peptide for 2 hr at the end of the culture. After removing the non-adherent cells and debris of dead cells, the surface of the adhered F2-IA^d cells was sufficiently washed. In an antigen presentation inhibitory experiment using chloroquine, 100 μM chloroquine was added 30 min before addition of EL4, EL4 loaded with OVA or 0.25 mg/ml OVA protein. Furthermore, F2-IA^d cells were cultured for 3 days in the continuous presence of chloroquine.
Whether the F2-IA^d cells presented the target antigen polypeptide on the cell surface was evaluated by monitoring the expression of CD69 by DO11.10 cells. The antigen-presenting F2-IA^d cells and DO11.10 cells were mixed and centrifuged to contact the cells with one another. After 6 hr and 24 hr, the cells were stained with biotin-labeled anti CD69 mAb (H1.2F3, BD Biosciences), and the expression of CD69 by DO11.10 cells was detected by flow cytometry (stained positive with FITC-labeled KJ1.26 (anti clonotypic TCR mAb)).

[6] = target: T1, I-A^d molecule (Mus musculus, UniProt P01921+P04228); experiment: Peptide-binding assay on CH1-IA^d cells (FITC-streptavidin, flow cytometry); details: CH1-IA^d cells (FIG. 17)
T1 construct: expressed in transfected cells; host or cells: CH1 cells, retroviral transduction with pMX (I-Aβ-IRES-I-Aα)
T1 sequence (P04228 24-256): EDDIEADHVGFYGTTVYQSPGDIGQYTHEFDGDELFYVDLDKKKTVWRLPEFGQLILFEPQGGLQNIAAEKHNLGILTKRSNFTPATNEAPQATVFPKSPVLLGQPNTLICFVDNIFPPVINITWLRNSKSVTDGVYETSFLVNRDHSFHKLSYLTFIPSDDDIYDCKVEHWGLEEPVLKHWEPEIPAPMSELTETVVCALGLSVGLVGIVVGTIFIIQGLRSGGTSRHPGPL
T1 sequence (P01921 28-265): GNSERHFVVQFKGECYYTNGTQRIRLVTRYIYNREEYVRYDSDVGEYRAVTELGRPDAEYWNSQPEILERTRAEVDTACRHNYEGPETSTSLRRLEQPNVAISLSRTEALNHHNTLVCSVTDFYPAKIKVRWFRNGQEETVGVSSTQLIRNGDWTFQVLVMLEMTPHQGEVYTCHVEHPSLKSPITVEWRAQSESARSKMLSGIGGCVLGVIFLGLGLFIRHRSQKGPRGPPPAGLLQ
Description: The CH1-IA^d or CH1-IA^b cells were suspended in 2% BSA IMDM to 2×10^6 cells/ml. The cell suspension (100 μl) was added to peptide (100 μl) continuously diluted with serum-free IMDM. After incubating at 37° C. for 2 hr, 6 hr or 16 hr, the cells were washed and stained with FITC-streptavidin. The amount of peptide bound to the cells was measured by flow cytometry.

[7] = tested on: peptidase activity in the serum; experiment: Effect of peptidase inhibitor on OVII peptide digestion by mouse serum; assay type: biochemical; details: inhibitor-containing buffer (FIGS. 22-24)
Excerpt: Given the above-mentioned Examples, the inventor examined the effect of peptidase inhibitor on the peptide digestion to identify the peptidase in the serum.

[8] = target: T2, ACE (Mus musculus, UniProt P09470); experiment: ACE activity of antigen presenting cell (CH1-IA^d cells, Abz-FRK(Dnp)P-OH substrate); assay type: cell-based; details: 2.5 mM inhibitor, preincubated 37° C. 20 min; 10 μM Abz-FRK(Dnp)P-OH (FIG. 25)
T2 construct: endogenous in cells; host or cells: CH1-IA^d cells (living, in PBS)
T2 sequence (P09470 35-1312): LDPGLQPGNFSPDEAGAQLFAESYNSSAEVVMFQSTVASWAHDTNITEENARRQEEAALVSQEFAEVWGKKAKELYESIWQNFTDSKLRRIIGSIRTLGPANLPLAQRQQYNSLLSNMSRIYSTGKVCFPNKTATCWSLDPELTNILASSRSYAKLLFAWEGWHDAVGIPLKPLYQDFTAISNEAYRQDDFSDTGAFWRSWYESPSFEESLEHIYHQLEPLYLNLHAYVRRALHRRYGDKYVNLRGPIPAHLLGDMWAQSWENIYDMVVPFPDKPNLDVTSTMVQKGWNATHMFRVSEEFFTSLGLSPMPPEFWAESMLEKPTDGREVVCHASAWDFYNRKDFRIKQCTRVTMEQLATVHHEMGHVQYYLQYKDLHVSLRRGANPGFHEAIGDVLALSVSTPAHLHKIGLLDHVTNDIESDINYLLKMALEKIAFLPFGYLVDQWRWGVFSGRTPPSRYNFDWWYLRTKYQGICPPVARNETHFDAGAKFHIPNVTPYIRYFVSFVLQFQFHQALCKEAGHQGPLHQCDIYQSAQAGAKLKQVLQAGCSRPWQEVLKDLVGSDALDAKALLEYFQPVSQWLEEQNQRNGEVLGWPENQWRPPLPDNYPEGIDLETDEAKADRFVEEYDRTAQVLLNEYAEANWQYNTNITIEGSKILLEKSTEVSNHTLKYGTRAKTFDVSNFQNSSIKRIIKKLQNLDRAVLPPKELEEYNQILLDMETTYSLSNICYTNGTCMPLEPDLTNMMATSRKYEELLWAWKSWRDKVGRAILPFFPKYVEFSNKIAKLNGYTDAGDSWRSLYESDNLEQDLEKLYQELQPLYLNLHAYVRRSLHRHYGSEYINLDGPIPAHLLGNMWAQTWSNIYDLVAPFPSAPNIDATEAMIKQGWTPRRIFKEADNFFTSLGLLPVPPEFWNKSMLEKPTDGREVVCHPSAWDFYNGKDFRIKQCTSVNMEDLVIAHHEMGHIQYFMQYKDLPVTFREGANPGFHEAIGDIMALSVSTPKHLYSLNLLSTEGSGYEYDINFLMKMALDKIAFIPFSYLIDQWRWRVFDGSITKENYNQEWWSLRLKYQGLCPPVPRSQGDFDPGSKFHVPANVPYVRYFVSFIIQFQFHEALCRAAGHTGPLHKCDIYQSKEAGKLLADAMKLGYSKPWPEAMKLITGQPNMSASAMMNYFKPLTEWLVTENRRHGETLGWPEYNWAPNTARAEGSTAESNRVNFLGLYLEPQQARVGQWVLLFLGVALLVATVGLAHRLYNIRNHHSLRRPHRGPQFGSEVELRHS
Description: The ACE activity of the cell surface was measured by a modified method of the method described in Sabatini, R. et al., Anal Biochem 363: 255-262, 2007.
10 μM Abz-FRK(Dnp)P-OH (Sigma, St. Louis) was added and the cells were incubated at 37° C. for a given time. The reaction was quenched by placing them on ice. After centrifugation, fluorescence in the supernatant was measured at excitation wavelength of 320 nm and emission wavelength of 420 nm (FIG. 25).

[9] = tested on: Th cell; experiment: In vivo immunization using modified molecule of WA36 (IFN-γ positive Th cells); set-up: species or system mouse; details: IFN-γ positive Th cells (FIG. 27)
[10] = tested on: DO11.10 cells; experiment: Growth of CD4 T cells: proliferation of DO11.10 cells by OVII modified peptides (3H-thymidine); assay type: cell-based, mouse
[11] = in vitro; details: mouse, serum
Description: as §1, §2

[12] = tested on: serum peptidase
Description: as §1, §2

[13] = tested on: FBL3 erythroleukemia cells; experiment: In vivo antitumor activity in FBL3 tumor mice immunized with MHC class I and class II peptide; details: CBF1 mouse
Excerpt: In the immunization experiment using mouse, the mouse was immunized with PbW332bPβ peptide as a Th-inducing peptide, and Db126 peptide as a CTL inducing peptide. As a tumor to be inoculated to the mouse, FBL3 erythroleukemia cell that highly expresses natural WT1 tumor antigen was used. FBL3 is a cell line that was transformed by infection with Friend leukemia virus, and has high possibility of also expressing virus antigen. In fact, when 2×10^7 FBL3 cells were intradermally injected on the back of the mouse, they grew into a solid tumor. However, the tumor had the tendency to shrink naturally after reaching the maximum size. […] Over time, the tumor sometimes started to grow rapidly in a long-term observation.
CBF1 mouse was immunized in advance by subcutaneous injection of 50 nmoles of Db126 peptide alone, or Db126 peptide and 50 nmoles of W332 peptide, to 4 sites in the top, bottom, left and right of the back. A vaccine of 5×10^7 Bordetella pertussis whole cells was added as an adjuvant to all immunization groups including control PBS inoculation group. The mouse was immunized 3 times (once per week) and then 2×10^7 FBL3 cells were subcutaneously injected to the back.

[14] = low concentration of pulsed peptide (0.1 μM or less) (FIG. 5)

PSISQAVHAAHAEINEA [POVII]
remaining at 16 h [1]: ~70% | digestion resistance to serum peptidases (in words) [2]: very strong enzyme resistance

ISQAVHAAHAEINEAGR (peptide inducing Th) [OVAII]
tumor control, Th peptide together with OVA-I [3]: enabled better control of the tumor; also recorded: completely disappeared in a part of the mice | migration of DO11.10 cells through F2-IA^d cell layer ([4]; high concentration of pulsed peptide (FIG. 5)): did not migrate by penetrating the F2-IA^d cell layer | migration of DO11.10 cells through F2-IA^d cell layer [4, 14]: actively migrated, and penetrated the F2-IA^d cell layer | expression of CD69 in DO11.10 cells ([5]; F2-IA^d cells pulsed with 0.1 μM peptide): induced expression of CD69 in DO11.10 cells to the same level as when OVA-loaded EL4 was incorporated | stimulation of DO11.10 cells by peptide-pulsed endothelial cells ([5]; F2-IA^d cells pulsed with peptide (FIG. 2)): could stimulate DO11.10 cells | induction of the expression of CD69 [5, 14]: induction of the expression of CD69 was hardly confirmed

ISQAVHAAHAEINEAR [OVII+]
binding activity to I-A^d molecule, effect of added Arg [6]: did not affect the binding activity to I-A^d molecule

c1cnc2c(c1)ccc1cccnc12 [o-phenanthrolin]
inhibition of OVII peptide digestion / peptidase activity in serum [7]: almost completely inhibited | inhibition of peptide degrading enzyme activity associated with living cells [8]: inhibited

PVLDFAPPGASAYGS [WA36, WT1 antigen-derived polypeptide]
induction of Th cell to the tumor antigen in in vivo immunization [9]: induction of Th cell was extremely difficult

C[C@H](CS)C(=O)N1CCC[C@H]1C(=O)O [captopril]
inhibition of OVII peptide digestion / peptidase activity in serum [7]: suppressed in a concentration-dependent manner | sensitization activity of OVII on addition of captopril ([10]; 2.5 mM captopril in medium (FIGS. 14, 15)): improved the sensitization activity of OVII to a level close to that of OVIIPA peptide | survival of DO11.10 cells ([10]; 5 mM captopril): cannot survive

ISQAVHAAHAEINEA [OVII]
metabolised at 2 h [11]: 40% | undigested peptide left [12]: undigested peptide was not left

KRYFKLSHLQMHSRKH [W332, WT1 antigen-derived polypeptide]
antitumor activity, Th-inducing peptide together with Db126 peptide ([13]; 50 nmoles each peptide s.c. with Wc adjuvant, 3 times, FBL3 tumor (FIG. 29)): stronger antitumor activity than Db126 single peptide immunization | long-term remaining tumor, Th-inducing peptide together with Db126 peptide ([13]; FBL3 tumor, vs Wc alone, Db126 or W332 single immunization): tends to shrink
